One data set addresses CB2 receptors (Homo sapiens, UniProt P34972). The experiment in a line: CB2 agonist/antagonist test. Format: cell-based. The settings on record: at concentrations up to 30 µM.
Data set [1] in a line: Ex vivo whole body biodistribution in mice.
The next data set deals with CB1 receptors (Homo sapiens, UniProt P21554). The experiment in a line: CB1 agonist/antagonist test. The format is cell-based. The settings on record: at concentrations up to 30 µM.
The next data set concerns the target T1, FAAH (Homo sapiens, UniProt O00519).
T1 sequence (O00519 1-579): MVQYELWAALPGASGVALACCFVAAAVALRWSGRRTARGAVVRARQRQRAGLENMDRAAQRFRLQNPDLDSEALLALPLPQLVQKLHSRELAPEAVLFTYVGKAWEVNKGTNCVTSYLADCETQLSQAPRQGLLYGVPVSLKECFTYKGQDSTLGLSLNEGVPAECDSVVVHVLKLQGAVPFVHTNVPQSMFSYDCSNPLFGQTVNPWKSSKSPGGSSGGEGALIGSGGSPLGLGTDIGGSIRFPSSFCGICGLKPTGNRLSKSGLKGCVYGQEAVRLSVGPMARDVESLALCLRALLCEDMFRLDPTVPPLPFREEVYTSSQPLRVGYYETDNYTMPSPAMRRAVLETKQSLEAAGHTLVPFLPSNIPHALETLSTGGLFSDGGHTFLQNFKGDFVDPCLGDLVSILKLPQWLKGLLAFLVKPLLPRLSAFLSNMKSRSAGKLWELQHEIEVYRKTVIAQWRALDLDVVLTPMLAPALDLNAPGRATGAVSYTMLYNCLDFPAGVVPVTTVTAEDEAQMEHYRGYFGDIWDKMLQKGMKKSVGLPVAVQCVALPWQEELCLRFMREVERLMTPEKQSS
As to the kind of experiment: In vitro FAAH inhibition enzyme assay. The settings on record: read-out: inhibition of FAAH enzyme. Format: biochemical.

Another data set concerns the target T2, human recombinant MAGL (Homo sapiens, UniProt Q99685).
T2 sequence (Q99685 1-303): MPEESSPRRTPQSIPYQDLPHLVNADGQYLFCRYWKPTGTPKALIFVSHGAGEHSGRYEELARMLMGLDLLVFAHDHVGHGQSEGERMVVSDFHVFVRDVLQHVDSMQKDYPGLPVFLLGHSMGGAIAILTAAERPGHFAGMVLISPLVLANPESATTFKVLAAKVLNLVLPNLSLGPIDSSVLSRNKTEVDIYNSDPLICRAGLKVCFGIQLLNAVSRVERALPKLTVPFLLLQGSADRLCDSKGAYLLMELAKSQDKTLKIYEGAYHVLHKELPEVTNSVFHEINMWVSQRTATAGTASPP
As to the kind of experiment: In vitro MAGL inhibition enzyme assay. The format is biochemical. The conditions noted are these: 4-nitrophenylacetate substrate.

In the next data set the target is T3, MAGL (Rattus norvegicus, UniProt Q8R431).
T3 sequence (Q8R431 1-303): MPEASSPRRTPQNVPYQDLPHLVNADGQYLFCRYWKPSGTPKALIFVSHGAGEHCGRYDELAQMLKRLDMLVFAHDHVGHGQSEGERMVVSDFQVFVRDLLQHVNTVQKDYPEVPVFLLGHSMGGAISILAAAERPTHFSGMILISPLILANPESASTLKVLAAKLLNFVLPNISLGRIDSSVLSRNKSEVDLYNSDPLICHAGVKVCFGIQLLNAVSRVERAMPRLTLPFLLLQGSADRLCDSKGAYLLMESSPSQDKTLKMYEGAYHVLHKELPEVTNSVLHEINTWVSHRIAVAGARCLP
The settings on record: 30 min i.v. before injection.

For orientation: inhibition means how much of the control response was suppressed. In general, pIC50 refers to the negative decadic logarithm of the IC50, by convention in mol/L.

pIC50: −log10 of the molar value. “And” between values parts separate entries of the source, which are not always exact repeats. Equal entries are not always repeated.

Chain of CB1 receptors (P21554 whole entry): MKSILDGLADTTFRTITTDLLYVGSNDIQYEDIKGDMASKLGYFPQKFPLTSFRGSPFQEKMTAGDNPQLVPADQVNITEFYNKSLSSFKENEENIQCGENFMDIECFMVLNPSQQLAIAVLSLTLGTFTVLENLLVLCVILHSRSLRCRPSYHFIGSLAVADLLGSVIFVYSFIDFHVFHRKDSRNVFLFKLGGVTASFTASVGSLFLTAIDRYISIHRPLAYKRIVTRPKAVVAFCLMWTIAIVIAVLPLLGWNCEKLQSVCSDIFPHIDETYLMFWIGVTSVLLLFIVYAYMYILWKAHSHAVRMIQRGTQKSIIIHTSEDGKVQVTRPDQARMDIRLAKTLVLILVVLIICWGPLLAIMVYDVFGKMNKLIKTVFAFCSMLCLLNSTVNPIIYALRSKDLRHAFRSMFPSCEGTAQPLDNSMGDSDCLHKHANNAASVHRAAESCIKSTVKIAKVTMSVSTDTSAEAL
Chain of CB2 receptors (P34972 whole entry): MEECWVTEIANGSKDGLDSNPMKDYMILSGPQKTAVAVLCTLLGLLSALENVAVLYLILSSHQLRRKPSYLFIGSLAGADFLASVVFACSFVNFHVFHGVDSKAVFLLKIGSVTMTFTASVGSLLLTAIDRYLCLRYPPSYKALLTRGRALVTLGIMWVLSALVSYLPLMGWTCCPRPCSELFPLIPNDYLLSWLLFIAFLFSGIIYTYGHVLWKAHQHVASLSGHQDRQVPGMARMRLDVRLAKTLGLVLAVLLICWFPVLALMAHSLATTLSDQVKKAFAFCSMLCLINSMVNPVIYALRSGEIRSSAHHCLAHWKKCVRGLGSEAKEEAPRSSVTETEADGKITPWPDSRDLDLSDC

In the case of `O=C(OC(C(F)(F)F)C(F)(F)F)N1CCC(CNS(=O)(=O)c2ccc(Cl)cc2)CC1` [Compound 5a, 1,1,1,3,3,3-hexafluoropropan-2-yl 4-(((4-chlorophenyl)sulfonamido)methyl)piperidine-1-carboxylate], the “CB2 receptor agonism or antagonism” value on CB2 receptors was “No significant CB1 and CB2 receptors agonism or antagonism”. The “uptake in the liver, kidneys and small intestine” value in data set [1] is listed as “High uptake”. Besides, at CB1 receptors, the “CB1 receptor agonism or antagonism” value was “No significant CB1 and CB2 receptors agonism or antagonism”.
Regarding `O=C(N1CCC(CNS(=O)(=O)c2ccc(Cl)cc2)CC1)n1cncn1` [Compound 5f, N-((1-(1H-1,2,4-triazole-1-carbonyl)piperidin-4-yl)methyl)-4-chlorobenzenesulfonamide], the inhibition at 0.5 µM on FAAH was determined as 75%. At human recombinant MAGL, the pIC50 was 7.41 and 7.44. Further, at CB2 receptors, the “CB2 receptor agonism or antagonism” value is “No significant CB1 and CB2 receptors agonism or antagonism”. The “uptake in the liver, kidneys and small intestine” value in data set [1] is “High uptake”. For the same molecule, on MAGL (rat, blocker 1 mg/kg), the “reduction of [11C]5f uptake in cerebellum by pretreatment” value is given as 53%, the “reduction of [11C]5f uptake in cerebral cortex by pretreatment” value was 42% and the “reduction of [11C]5f whole brain uptake by pretreatment” value is listed as 48%. In addition, on CB1 receptors, the “CB1 receptor agonism or antagonism” value was “No significant CB1 and CB2 receptors agonism or antagonism”.
`NC(=O)c1cccc(-c2cccc(OC(=O)NC3CCCCC3)c2)c1` [URB597, reference compound]: the “effect on [11C]SAR127303 uptake and distribution in rat brain” value at MAGL (blocker 3 mg/kg) was “no effect on the uptake and distribution in rat brain”.

Values taken from PMC4893642 (Theranostics, 2016).
